From ChEMBL document CHEMBL3600301, “CholesteroNitrones for Stroke” (J Med Chem, 2015)
Active and inactive are the calls of the source. The calls are words filed in the database; no cut-off is given here.

Legend:
Primary neuron [1] = test: Protection against oxygen-glucose deprivation-induced cytotoxicity in Sprague-Dawley rat cerebral cortex primary neuronal cell cultures assessed as increase in cell viability at 1 uM added at onset of recovery period by MTT assay; type: functional, tissue-based
Primary neuron [2] = test: Protection against oxygen-glucose deprivation-induced cytotoxicity in Sprague-Dawley rat cerebral cortex primary neuronal cell cultures assessed as increase in cell viability at 5 uM added at onset of recovery period by MTT assay; type: functional, tissue-based
Primary neuron [3] = test: Protection against oxygen-glucose deprivation-induced cytotoxicity in Sprague-Dawley rat cerebral cortex primary neuronal cell cultures assessed as increase in cell viability at 1 and 5 uM added at onset of recovery period and measured during recovery for 5 days by MTT assay; type: functional, tissue-based
[4] = Protection against oxygen-glucose deprivation-induced cytotoxicity in Sprague-Dawley rat cerebral cortex primary neuronal cell cultures assessed as increase in cell viability at 1 uM added at onset of recovery period and measured during recovery for 5 days by MTT assay (reference value: 0.842 AU); type: functional, Primary neuron
[5] = Protection against oxygen-glucose deprivation-induced cytotoxicity in Sprague-Dawley rat cerebral cortex primary neuronal cell cultures assessed as increase in cell viability at 5 uM added at onset of recovery period and measured during recovery for 5 days by MTT assay (reference value: 0.842 AU); type: functional, Primary neuron
Primary neuron [6] = test: Protection against oxygen-glucose deprivation-induced cytotoxicity in Sprague-Dawley rat cerebral cortex primary neuronal cell cultures assessed as increase in cell viability at 1 and 5 uM added after 48 hrs post recovery period and measured during recovery for 5 days by MTT assay; type: functional, tissue-based
Primary neuron [7] = test: Protection against oxygen-glucose deprivation-induced cytotoxicity in Sprague-Dawley rat cerebral cortex primary neuronal cell cultures assessed as increase in cell viability at 0.1 to 250 uM added at onset of recovery period by MTT assay; type: functional, tissue-based
[8] = Toxicity in Sprague-Dawley rat cerebral cortex primary neuronal cell cultures under oxygen-glucose deprivation conditions assessed as […] in cell viability at >50 uM added at onset of recovery period by MTT assay; type: tissue-based; details: primary neuron
Primary neuron [9] = test: Protection against oxygen-glucose deprivation-induced cytotoxicity in Sprague-Dawley rat cerebral cortex primary neuronal cell cultures assessed as increase in cell viability at 250 uM added at onset of recovery period by MTT assay; type: functional, tissue-based
Primary neuron [10] = test: Protection against oxygen-glucose deprivation-induced cytotoxicity in Sprague-Dawley rat cerebral cortex primary neuronal cell cultures assessed as increase in cell viability at 250 uM added at onset of recovery period and measured during recovery for 5 days by MTT assay; type: functional, tissue-based
Primary neuron [11] = test: Protection against oxygen-glucose deprivation-induced cytotoxicity in Sprague-Dawley rat cerebral cortex primary neuronal cell cultures assessed as increase in cell viability at 250 uM added after 48 hrs post recovery period and measured during recovery for 5 days by MTT assay; type: functional, tissue-based
Rattus norvegicus [12] = test: Neuroprotection in Wistar rat model of ischemia assessed as reduction in neurological deficit score at 40 mg/kg measured after 5 days of reperfusion; type: functional, organism-based
Rattus norvegicus [13] = test: Neuroprotection in Wistar rat model of ischemia assessed as reduction ischemia-induced neuronal death in hippocampal CA1 regions at 40 mg/kg, ip dosed at onset of reperfusion period and measured on 5 days of reperfusion by fluoro jade B staining based fluorescence microscopy; type: functional; design: scale not given: the % may be the effect or the level left
Rattus norvegicus [14] = test: Neuroprotection in Wistar rat model of ischemia assessed as reduction ischemia-induced neuronal death in cortical regions at 40 mg/kg, ip dosed at onset of reperfusion period and measured on 5 days of reperfusion by fluoro jade B staining based fluorescence microscopy; type: functional; design: scale not given: the % may be the effect or the level left
Rattus norvegicus [15] = test: Neuroprotection in Wistar rat model of ischemia assessed as reduction ischemia-induced neuronal apoptosis in hippocampal CA1 regions at 40 mg/kg, ip dosed at onset of reperfusion period and measured on 5 days of reperfusion by TUNEL assay; type: functional; design: scale not given: the % may be the effect or the level left
Rattus norvegicus [16] = test: Neuroprotection in Wistar rat model of ischemia assessed as reduction ischemia-induced neuronal apoptosis in cortical regions at 40 mg/kg, ip dosed at onset of reperfusion period and measured on 5 days of reperfusion by TUNEL assay; type: functional; design: scale not given: the % may be the effect or the level left
[17] = Toxicity in Sprague-Dawley rat cerebral cortex primary neuronal cell cultures under oxygen-glucose deprivation conditions assessed as […] in cell viability at >10 uM added at onset of recovery period by MTT assay; type: tissue-based; details: primary neuron
Primary neuron [18] = test: Reduction of oxygen-glucose deprivation-induced ROS generation in Sprague-Dawley rat cerebral cortex primary neuronal cell cultures at 1 to 10 uM measured at 2 hrs of recovery after oxygen-glucose deprivation by fluorescence assay; type: functional, tissue-based
Primary neuron [19] = test: Reduction of oxygen-glucose deprivation-induced lipid peroxidation in Sprague-Dawley rat cerebral cortex primary neuronal cell cultures assessed as reduction in MDA level at 5 uM measured at 4 hrs of recovery after oxygen-glucose deprivation by TBARS based colorimetric and fluorometric assay; type: functional, tissue-based
Rattus norvegicus [20] = test: Neuroprotection in Wistar rat model of ischemia assessed as reduction in neurological deficit score at 0.005 mg/kg measured after 5 days of reperfusion (reference value: 2.5 +/- 0.34 No unit); type: functional
Rattus norvegicus [21] = test: Neuroprotection in Wistar rat model of ischemia assessed as reduction in neurological deficit score at 0.1 mg/kg measured after 5 days of reperfusion (reference value: 2.5 +/- 0.34 No unit); type: functional
Rattus norvegicus [22] = test: Neuroprotection in Wistar rat model of ischemia assessed as reduction ischemia-induced neuronal death in hippocampal CA1 regions at 0.05 mg/kg, ip dosed at onset of reperfusion period and measured on 5 days of reperfusion by fluoro jade B staining based fluorescence microscopy; type: functional; design: scale not given: the % may be the effect or the level left
Rattus norvegicus [23] = test: Neuroprotection in Wistar rat model of ischemia assessed as reduction ischemia-induced neuronal death in cortical regions at 0.05 mg/kg, ip dosed at onset of reperfusion period and measured on 5 days of reperfusion by fluoro jade B staining based fluorescence microscopy; type: functional; design: scale not given: the % may be the effect or the level left
Rattus norvegicus [24] = test: Neuroprotection in Wistar rat model of ischemia assessed as reduction ischemia-induced neuronal death in hippocampal CA1 regions at 0.1 mg/kg, ip dosed at onset of reperfusion period and measured on 5 days of reperfusion by fluoro jade B staining based fluorescence microscopy; type: functional; design: scale not given: the % may be the effect or the level left
Rattus norvegicus [25] = test: Neuroprotection in Wistar rat model of ischemia assessed as reduction ischemia-induced neuronal death in cortical regions at 0.1 mg/kg, ip dosed at onset of reperfusion period and measured on 5 days of reperfusion by fluoro jade B staining based fluorescence microscopy; type: functional; design: scale not given: the % may be the effect or the level left
Rattus norvegicus [26] = test: Neuroprotection in Wistar rat model of ischemia assessed as reduction ischemia-induced neuronal apoptosis in hippocampal CA1 regions at 0.05 and 0.1 mg/kg, ip dosed at onset of reperfusion period and measured on 5 days of reperfusion by TUNEL assay; type: functional; design: scale not given: the % may be the effect or the level left
Rattus norvegicus [27] = test: Neuroprotection in Wistar rat model of ischemia assessed as reduction ischemia-induced neuronal apoptosis in cortical regions at 0.05 and 0.1 mg/kg, ip dosed at onset of reperfusion period and measured on 5 days of reperfusion by TUNEL assay; type: functional; design: scale not given: the % may be the effect or the level left

SMILES: CC(C)CCC[C@@H](C)[C@H]1CC[C@H]2[C@@H]3CCC4=C/C(=[N+](/C)[O-])CC[C@]4(C)[C@H]3CC[C@]12C
- Activity (Primary neuron [1]): inactive
- Activity (Primary neuron [2]): inactive
- Activity (Primary neuron [3]): Active
- Activity [4]: 0.888 a.u.
- Activity [5]: 0.998 a.u.
- Activity (Primary neuron [6]): Active

SMILES: CC(C)CCC[C@@H](C)[C@H]1CC[C@H]2[C@@H]3CCC4=CC(=O)CC[C@]4(C)[C@H]3CC[C@]12C [4-CHOLESTEN 3-ONE]
- Activity (Primary neuron [7]): inactive
- Activity [8]: Toxic

SMILES: CC(C)(C)/[N+]([O-])=C/c1ccc(S(=O)(=O)[O-])cc1S(=O)(=O)[O-].[Na+].[Na+]
- Activity (Primary neuron [9]): Active
- Activity (Primary neuron [10]): inactive
- Activity (Primary neuron [11]): inactive
- Activity (Rattus norvegicus [12]): inactive
- Activity (Rattus norvegicus [13]): 17%
- Activity (Rattus norvegicus [14]): 66%
- Activity (Rattus norvegicus [15]): 21%
- Activity (Rattus norvegicus [16]): 55%

SMILES: CC(C)CCC[C@@H](C)[C@H]1CC[C@H]2[C@@H]3CCC4=C/C(=[N+](\C)[O-])CC[C@]4(C)[C@H]3CC[C@]12C
- Activity (Primary neuron [1]): Active
- Activity (Primary neuron [2]): Active
- Activity [17]: Toxic
- Activity (Primary neuron [9]): Active
- Activity (Primary neuron [3]): Active
- Activity [4]: 0.931 a.u.
- Activity [5]: 0.995 a.u.
- Activity (Primary neuron [6]): Active
- Activity (Primary neuron [18]): Active
- Activity (Primary neuron [19]): Active
- Activity (Rattus norvegicus [20]): 0.5
- Activity (Rattus norvegicus [21]): 1.25
- Activity (Rattus norvegicus [22]): 17%
- Activity (Rattus norvegicus [23]): 66%
- Activity (Rattus norvegicus [24]): 27%
- Activity (Rattus norvegicus [25]): 83%
- Activity (Rattus norvegicus [26]): 30%
- Activity (Rattus norvegicus [27]): 89%

SMILES: CC(C)CCC[C@@H](C)[C@H]1CC[C@H]2[C@@H]3CC=C4CC(=O)CC[C@]4(C)[C@H]3CC[C@]12C
- Activity (Primary neuron [7]): inactive
